Series [1] can be described thus: Molar enthalpy of transition or fusion. To be noted: DSC.
The conditions of series [2]: DSC.

± gives the expanded uncertainty stated by the source.

For the molecule `COC(=O)[C@H](c1ccccc1Cl)N1CCc2sccc2C1.O=S(=O)(O)O` [(S)-(+)-Clopidogrel hydrogen sulfate], the results for the “Molar enthalpy of transition or fusion” value in series [1] (Crystal 1) and in series [1] (Crystal 2) were 7.98 ± 0.335 kcal/mol and 9.09 ± 0.382 kcal/mol, respectively. The Triple point temperature in series [2] (Crystal 1) is on record as 458.4 ± 1 K; in series [2] (Crystal 2) it was 454.7 ± 1 K.
